# Laboratory results: publication PMC10064984, “Anti-cyclooxygenase, anti-glycation, and anti-skin aging effect of Dendrobium officinale flowers’ aqueous extract and its phytochemical validation in aging” (Frontiers in Immunology, 2023)
# Several values for one entry are separate records, joined by “and”; a condition that tells them apart may be missing. Equal values may be shown once.
# Tests used:
# [1] = Online UPLC-PDA-MS-ABTS·+ scavenging (postcolumn derivatisation); conditions: within DOF extract
# Procedure: Online identification of antioxidant components of DOF extract was performed using a UPLC system (Milford, MA, USA) consisting of a Waters photodiode array detector and a Waters postcolumn derivatisation system supplying fresh ABTS solution (UPLC-PDA-QDa-ABTS). […] The detection wavelengths were set at 280 and 734 nm, and the injection volume of the sample was 10 μl.
# To detect radical scavengers, the UPLC system was coupled with a Waters pump, which supplied freshly prepared ABTS·+ solution into a reaction coil (15 m, 0.25 mm ID) with a flow rate of 0.2 ml/min at 37°C. Negative peaks were recorded based on a decrease of absorbance at 729 nm after the reaction of individual compounds with the ABTS·+ radical. For preliminary identification of compounds, a Waters Acquity QDa mass detector in negative ionisation mode was connected in series to PDA with the following parameters: electrospray ion source; cone voltage, 15 V; atomiser, N2; and scanning range, 100–800 m/z.
# [2] = Fluorescent AGEs formation in a BSA-fructose/glucose system; format: biochemical; conditions: for inhibition of fluorescent AGEs formation (BSA-抗糖化), single replicate: individual replicate; for inhibition of fluorescent AGEs formation (BSA-抗糖化), 平均 (mean): mean of 3 replicates
# Method in brief: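 Fluorescent AGE inhibition was measured in triplicate, correcting sample and control fluorescence for BSA-free blanks. Glycation used BSA incubated with D-fructose and D-glucose, with samples dissolved in DMSO:water (1:4).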
# [3] = biological target: T1, COX-2 (Homo sapiens, UniProt P35354); test: Anti-COX-2 assay (COX-2 Inhibitor Screening Kit); format: biochemical
# T1 construct: purchased Beyotime S0168
# T1 sequence (P35354 18-604): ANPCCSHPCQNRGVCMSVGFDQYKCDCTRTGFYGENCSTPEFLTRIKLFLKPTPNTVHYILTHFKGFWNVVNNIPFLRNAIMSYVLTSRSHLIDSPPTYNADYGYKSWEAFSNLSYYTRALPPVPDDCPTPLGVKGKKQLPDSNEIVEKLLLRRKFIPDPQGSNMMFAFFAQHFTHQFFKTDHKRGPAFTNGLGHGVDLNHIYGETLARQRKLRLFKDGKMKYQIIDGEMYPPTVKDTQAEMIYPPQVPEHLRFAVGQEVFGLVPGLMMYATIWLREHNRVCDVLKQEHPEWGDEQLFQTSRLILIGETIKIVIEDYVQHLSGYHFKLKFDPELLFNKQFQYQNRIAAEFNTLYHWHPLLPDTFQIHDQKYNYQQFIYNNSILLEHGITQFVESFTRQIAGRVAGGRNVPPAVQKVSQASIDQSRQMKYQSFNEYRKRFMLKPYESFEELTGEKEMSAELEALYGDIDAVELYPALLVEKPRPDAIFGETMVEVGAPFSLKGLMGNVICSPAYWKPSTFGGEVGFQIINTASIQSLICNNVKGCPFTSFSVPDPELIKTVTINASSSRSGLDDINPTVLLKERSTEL
# [4] = ABTS·+ decolourisation capacity; format: biochemical; conditions: for ABTS scavenging rate: 0.5mM series, replicate wells; for IC50: mean ± SD, n = 3
# Method in brief: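 IC50 values were derived graphically from dose-inhibition curves, with % inhibition calculated versus a buffer-only (0.2 M phosphate, pH 7.4) control. Each sample (200 μl) reacted for 10 min with 100 μl ABTS·+ reagent pre-set to A729 0.8 ± 0.05, then absorbance at 729 nm was measured in triplicate.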
# [5] = FRAP total antioxidant capacity; format: biochemical; conditions: lower part of sheet (compound series);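 further: colourimetric FRAP kit assay read as absorbance in 96-well plates, values as mM FeSO4 via standard curve, EC1 being sample concentration matching 1.0 mmol/L FeSO4, Trolox positive control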
# [6] = DPPH· scavenging; format: biochemical; conditions: mean ± SD, n = 3;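 further: colourimetric DPPH radical scavenging in 96-well plates, absorbance read-out, percent inhibition relative to ethanol control absorbance, IC50 derived graphically from dose-inhibition curves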
# [7] = mean ± SD, n = 3, read-out: BSA-glycation IC50
compound,measurement,setting,value
"O=c1c(O[C@@H]2O[C@H](CO)[C@@H](O)[C@H](O)[C@H]2O)c(-c2ccc(O)c(O)c2)oc2cc(O)cc(O)c12 [compound 25, Isoquercitrin]",online ABTS radical scavenging (size of negative peaks at 734 nm),[1],strongest ABTS radical scavengers
same,IC50,[2]; [7],213 ± 10.4 µM
same,COX-2 inhibition (in words),[3],great COX-2 inhibition
same,COX-2 inhibition,"[3]; 3.125 μM, single replicates, listed as T15, 3.125 µM",-5.79% and 0.13% and 6.24%
same,COX-2 inhibition,"[3]; 6.25 μM, single replicates, listed as T15, 6.25 µM",11.89% and 39.51% and 35.72%
same,inhibition at 12.5 µM,"[3]; 12.5 μM, single replicates",41.8%
same,COX-2 inhibition,"[3]; 12.5 μM, single replicates, listed as T15, 12.5 µM",53.29% and 49.38%
same,inhibition at 25 µM,"[3]; 25 μM, single replicates",67.1%
same,COX-2 inhibition,"[3]; 25 μM, single replicates, listed as T15, 25 µM",72.74% and 74.72%
same,inhibition at 50 µM,"[3]; 50 μM, single replicates",78.9%
same,COX-2 inhibition,"[3]; 50 μM, single replicates, listed as T15, 50 µM",78.06% and 79.70%
same,inhibition at 100 µM,"[3]; 100 μM, single replicates",77.2%
same,COX-2 inhibition,"[3]; 100 μM, single replicates, listed as T15, 100 µM",81.94% and 80.44%
same,inhibition at 200 µM,"[3]; 200 μM, single replicates",79.2%
same,COX-2 inhibition,"[3]; 200 μM, single replicates, listed as T15, 200 µM",82.29% and 79.96%
same,ABTS scavenging rate,"[4]; concentration 7.8125 (unit not given), listed as T15",37.41% and 37.49% and 37.14%
same,ABTS scavenging rate,"[4]; concentration 15.625 (unit not given), listed as T15",63.25% and 62.99% and 62.91%
same,ABTS scavenging rate,"[4]; concentration 31.25 (unit not given), listed as T15",95.51% and 95.22% and 96.00%
same,ABTS scavenging rate,"[4]; concentration 62.5 (unit not given), listed as T15",99.23% and 99.50% and 99.53%
same,ABTS scavenging rate,"[4]; concentration 125 (unit not given), listed as T15",99.63% and 99.58% and 99.53%
same,ABTS scavenging rate,"[4]; concentration 250 (unit not given), listed as T15",99.04% and 98.96% and 98.89%
same,ABTS scavenging rate,"[4]; concentration 500 (unit not given), listed as T15",99.05% (2×) and 99.02%
same,IC50,[4],10.67 ± 0.03 µM
same,FRAP EC1,[5],520.2 ± 17.9 µM
Neoschaftoside [compound 21],"inhibition of fluorescent AGEs formation (BSA-抗糖化), single replicate",[2]; 15.625 µM,0.054% and 0.23% and 1.18%
same,"inhibition of fluorescent AGEs formation (BSA-抗糖化), 平均 (mean)",[2]; 15.625 µM,0.49%
same,"inhibition of fluorescent AGEs formation (BSA-抗糖化), single replicate",[2]; 31.25 µM,5.09% and 4.69% and 3.66%
same,"inhibition of fluorescent AGEs formation (BSA-抗糖化), 平均 (mean)",[2]; 31.25 µM,4.48%
same,"inhibition of fluorescent AGEs formation (BSA-抗糖化), single replicate",[2]; 62.5 µM,7.25% and 9.67% and 10.17%
same,"inhibition of fluorescent AGEs formation (BSA-抗糖化), 平均 (mean)",[2]; 62.5 µM,9.03%
same,"inhibition of fluorescent AGEs formation (BSA-抗糖化), single replicate",[2]; 125 µM,20.04% and 20.34% and 19.73%
same,"inhibition of fluorescent AGEs formation (BSA-抗糖化), 平均 (mean)",[2]; 125 µM,20.04%
same,"inhibition of fluorescent AGEs formation (BSA-抗糖化), single replicate",[2]; 250 µM,36.81% and 35.45% and 36.08%
same,"inhibition of fluorescent AGEs formation (BSA-抗糖化), 平均 (mean)",[2]; 250 µM,36.11%
same,"inhibition of fluorescent AGEs formation (BSA-抗糖化), single replicate",[2]; 500 µM,54.95% and 55.05% and 56.69%
same,"inhibition of fluorescent AGEs formation (BSA-抗糖化), 平均 (mean)",[2]; 500 µM,55.56%
same,"inhibition of fluorescent AGEs formation (BSA-抗糖化), single replicate",[2]; 1000 µM,71.70% (2×) and 72.55%
same,"inhibition of fluorescent AGEs formation (BSA-抗糖化), 平均 (mean)",[2]; 1000 µM,71.98%
same,"inhibition of fluorescent AGEs formation (BSA-抗糖化), single replicate",[2]; 2000 µM,83.42% and 82.90% and 83.96%
same,"inhibition of fluorescent AGEs formation (BSA-抗糖化), 平均 (mean)",[2]; 2000 µM,83.43%
same,"inhibition of fluorescent AGEs formation (BSA-抗糖化), single replicate","[2]; 4000 µM (series head 'T9 4000µM', 2-fold dilutions)",91.13% and 89.60% and 90.19%
same,"inhibition of fluorescent AGEs formation (BSA-抗糖化), 平均 (mean)",[2]; 4000 µM,90.31%
same,IC50,"[2]; BSA anti-glycation, IC50 of each of 3 replicates, read-out: IC50, single replicate curve",432 µM and 437 µM and 421 µM
same,IC50,[2]; [7],430 ± 8 µM
same,COX-2 inhibition (in words),[3],no inhibitory effects
same,COX-2 inhibition,"[3]; 31.25 μM, single replicates, listed as T21, 31.25 µM",-6.16% and -4.80% and 6.61%
same,COX-2 inhibition,"[3]; 62.5 μM, single replicates, listed as T21, 62.5 µM",6.28% and 7.65% and 11.30%
same,COX-2 inhibition,"[3]; 125 μM, single replicates, listed as T21, 125 µM",1.19% and -2.74% and 1.96%
same,COX-2 inhibition,"[3]; 250 μM, single replicates, listed as T21, 250 µM",3.95% and 0.81% and 18.87%
same,COX-2 inhibition,"[3]; 500 μM, single replicates, listed as T21, 500 µM",-4.13% and -1.62% and 4.93%
same,COX-2 inhibition,"[3]; 1000 μM, single replicates, listed as T21, 1000 µM",-1.41% and 2.18% and 12.07%
same,COX-2 inhibition,"[3]; 2000 μM (2mM), single replicates, listed as T21",51.51% and 49.86% and 47.92%
same,ABTS scavenging rate,"[4]; concentration 15.625 (unit not given), listed as T21",37.92% and 38.74% and 38.24%
same,ABTS scavenging rate,"[4]; concentration 31.25 (unit not given), listed as T21",60.76% and 61.20% and 60.99%
same,ABTS scavenging rate,"[4]; concentration 62.5 (unit not given), listed as T21",81.08% and 80.87% and 80.62%
same,ABTS scavenging rate,"[4]; concentration 125 (unit not given), listed as T21",92.61% and 92.60% and 92.36%
same,ABTS scavenging rate,"[4]; concentration 250 (unit not given), listed as T21",98.02% (2×) and 98.07%
same,ABTS scavenging rate,"[4]; concentration 500 (unit not given), listed as T21",99.70% and 99.73% and 99.67%
same,IC50,[4],21.4 ± 0.24 µM
same,IC50,[6],> 5000 µM
same,FRAP EC1,[5],>5000 µM
Vicenin-3 [compound 19],IC50,[2]; [7],243 ± 12 µM
same,COX-2 inhibition (in words),[3],no inhibitory effects
same,COX-2 inhibition,"[3]; 31.25 μM, single replicates, listed as T8, 31.25 µM",-27.09% and -25.76% and -19.42%
same,COX-2 inhibition,"[3]; 62.5 μM, single replicates, listed as T8, 62.5 µM",-19.03% and -34.16% and -24.78%
same,COX-2 inhibition,"[3]; 125 μM, single replicates, listed as T8, 125 µM",-26.82% and -40.95% and -33.02%
same,COX-2 inhibition,"[3]; 250 μM, single replicates, listed as T8, 250 µM",-32.94% and -46.72% and -42.57%
same,COX-2 inhibition,"[3]; 500 μM, single replicates, listed as T8, 500 µM",-35.30% and -54.98% and -48.28%
same,COX-2 inhibition,"[3]; 1000 μM, single replicates, listed as T8, 1000 µM",-23.28% and -61.50% and -50.44%
same,COX-2 inhibition,"[3]; 2000 μM (2mM), single replicates, listed as T8",-50.77% and -55.05% and -54.78%
same,IC50,[4],74.8 ± 0.92 µM
same,IC50,[6],> 5000 µM
same,FRAP EC1,[5],>5000 µM
